Measured values taken from patent US20250051301A1, “MUTANT IDH1 AND IDH2 INHIBITOR AND APPLICATION THEREOF” (Betta Pharmaceuticals Co., Ltd, priority 2022, published 2025).
Values after ≈ are worked out from the molar mass of the structure shown.

Assays:
mutant IDH1 = settings: AML or MDS patients carrying IDH1 gene mutations, Phase I; cited from earlier work
IDH2^R140Q = molecular target: T1, IDH2^R140Q (Homo sapiens, UniProt P48735, R140Q); assay: Enzyme activity inhibition assay (fluorescence-based), IDH2 R140Q; type: biochemical
T1 sequence (P48735 40-452 R140Q): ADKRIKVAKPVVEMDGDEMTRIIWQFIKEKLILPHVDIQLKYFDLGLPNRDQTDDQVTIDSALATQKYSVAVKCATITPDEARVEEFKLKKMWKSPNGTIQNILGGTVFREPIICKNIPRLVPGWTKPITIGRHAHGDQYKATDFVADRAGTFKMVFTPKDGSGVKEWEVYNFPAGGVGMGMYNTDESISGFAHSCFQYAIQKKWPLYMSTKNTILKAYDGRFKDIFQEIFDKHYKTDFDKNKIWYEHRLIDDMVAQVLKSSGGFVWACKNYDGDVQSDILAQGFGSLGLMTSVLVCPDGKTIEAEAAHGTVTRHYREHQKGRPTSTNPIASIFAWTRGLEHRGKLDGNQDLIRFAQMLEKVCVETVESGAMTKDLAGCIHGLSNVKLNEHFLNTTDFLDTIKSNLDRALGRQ
Description: (§1) The inhibitory ability of the compounds on the enzyme activities of IDH1^R132H and IDH2^R140Qwas detected and expressed as the half inhibitory concentration (IC50) value. AG-881 was used as a positive control compound. In this experiment, compounds were screened on enzymes IDH1^R132H and IDH2^R140Q using a fluorescence-based method (initial concentration: 10000 nM, 3-fold dilution, 10 concentrations, and single-well detection). • (1) Preparation of 1×assay buffer. • (2) Preparation of compound concentration gradient: the compounds to be tested were assayed at an initial concentration of 10000 nM, with 3-fold dilution and 10 concentrations, and diluted into 200-fold the final concentration in 100% DMSO solution in a 384-well plate. • (3) 250 nL of DMSO and 250 nL of diluted compounds were transferred to a reaction plate with Echo 550. • (4) IDH2^R140Q enzyme detection: 25 μL of an IDH2^R140Q enzyme solution was added, and the mixture was incubated for 60 minutes; then 25 μL of a substrate solution was added, and the mixture was incubated for 150 minutes; then 25 μL of a detection buffer was added, and the mixture was shaken for 1 minute and incubated for 60 minutes; and finally, Synergy 2, Ex544/Em590 cutoff 590 was used for reading. • (5) IDH1^R132H enzyme detection: 40 μL of a mixture solution of an IDH1^R132H enzyme at the 1.25-fold final concentration and NADPH was added, and the mixture was incubated for 60 minutes; then 10 μL of a substrate solution at the 5-fold final concentration was added, and the mixture was incubated for 90 minutes; then 25 μL of a detection buffer at the 3-fold final concentration was added, and the mixture was shaken for 1 minute. and finally, Synergy 2, Ex544/Em590 cutoff 590 was used for reading. • (8) Inhibition rate calculation, formula: % Inhibition=(RFU_sample−RFU_min)/(RFU_max−RFU_min)*100%, wherein RFU-sample represents the fluorescence intensity of a sample; RFU-min represents the average value of negative control wells and represents the fluorescence intensity with an enzyme; and RFU-max represents the average value of positive control wells and represents the fluorescence intensity without an enzyme. The curve fitting was performed using Graphpad Prism software to obtain IC50 values, and the test results were as shown in table 2.

IDH1^R132H [1] = molecular target: T2, IDH1^R132H (Homo sapiens, UniProt O75874, R132H); assay: 2-HG assay in cells (U87 cell line stably transfected with IDH1-R132H); type: cell-based; settings: 72 hours, read-out: 2-HG in medium (IC50, nM) (IDH1^R132H)
Description: The compounds were detected for the inhibition of 2-HG production in the U87 cell line stably transfected with IDH1-R132H and the culture supernatant of TF-1 cells stably transfected with IDH2-R140Q. • (1) The cultured cells were collected by centrifugation, then suspended in a cell culture solution, counted, and seeded in a 96-well cell culture plate at 160 μL of cell suspension/well (20000 cells/well for U87-IDH1-R132H; 10000 cells/well for TF-1-IDH2-R140Q). • (2) A 96-well plate dilution was taken, and the compounds to be tested were diluted in a gradient manner in DMSO and a cell culture solution; and then 40 μL of the gradient-diluted compounds to be tested were added to the 96-well plate on which cells have been plated. […] Finally, the plate was cultured in a 37° C. incubator containing 5% CO2. • (3) After the compounds were incubated with the cells for 72 hours, the cell culture plate was taken out and centrifuged at 1500 rpm for 5 minutes, and then 100 μL of the medium supernatant was aspirated for 2-HG detection. • (4) 2-HG detection: the cell supernatant was diluted with purified water, 30 μL of the diluted sample was taken into a 1.5 ml centrifuge tube, and 200 μL of the internal standard solution was added. The mixture was mixed uniformly by vortex and centrifuged at 3200 rpm at 4° C. for 15 minutes. 100 μL of the supernatant solution was diluted with water at a 1:1 ratio and then detected by LC-MS. Analyte Peak Area was used to represent the 2-HG levels. • (5) Inhibition rate calculation, formula: % Inhibition=(1−Analyte Peak Area_sample/Analyte Peak Area_max)*100%, wherein Analyte Peak Area_sample represents the Analyte Peak Area of the sample to which the compound was added; Analyte Peak Area_max represents the average value of Analyte Peak Area of positive control wells (representing the absence of the compound). The curve fitting was performed using Graphpad Prism software to obtain IC50 values, and the test results were as shown in table 2.

IDH1^R132H [2] = molecular target: T2, IDH1^R132H; assay: Enzyme activity inhibition assay (fluorescence-based), IDH1 R132H; type: biochemical
Description: as §1

[3] = Pharmacokinetic detection in dogs; type: in vivo; settings: beagle dogs
Description: Adult beagle dogs (6-12 months of age) received a single dose of the compounds to be tested via intravenous administration (IV) or oral gavage administration (PO), respectively. In the IV single dose, 5% DMSO+5% Solutol+90% physiological saline was used as the excipient; the intravenous administration was carried out at a dose of 1 mg/kg (2 females and 2 males); and the venous blood collection time was 5 min, 15 min, 0.5 h, 1 h, 2 h, 4 h, 6 h, 8 h, 10 h and 24 h. In the PO single dose, 5% DMSO+5% Solutol+90% purified water was used as the excipient; the oral gavage administration was carried out at a dose of 5 mg/kg (2 females and 2 males); and the blood collection time was 15 min, 0.5 h, 1 h, 2 h, 4 h, 6 h, 8 h, 10 h and 24 h. Blood samples were collected in tubes containing EDTA anticoagulants and centrifuged at 4000 rpm at 4° C. for 10 min, and the supernatants were transferred to centrifuge tubes and stored at −20° C. For the detection, 30 μL of the plasma supernatant sample was taken, and 200 μL of an internal standard solution was added. The mixture was centrifuged at 3000 rpm for 10 minutes. Then, 100 μL of the supernatant solution was diluted with water at a 1:1 ratio and then injected with an injection volume of 5 μL. The concentration of the compounds to be tested in the plasma sample was analyzed by liquid chromatography-tandem mass spectrometry (LC-MS/MS). Plasma concentration-time data for individual animals were analyzed using Sciex Analyst software. The non-compartment model was introduced into the concentration analysis, and pharmacokinetic parameters (Cl_obs, Cmax and AUClast) of the compounds to be tested were calculated using WinNonlin (version 4.1; pHarsight) software.

[4] = Kinetic solubility experiment; type: physicochemical; settings: buffer, kinetic from dmso stock
Description: 1. Preparation of Solutions/Buffers at Different pH Values
• Solution A: 17.42 g of K2HPO4 was weighed and dissolved in 1 L of ultrapure water. • Solution B: 13.65 g of KH2PO4 was weighed and dissolved in 1 L of ultrapure water.
A certain mass of substance to be tested was accurately weighed and dissolved in a certain volume of DMSO to obtain a 20 mM or 10 mM stock solution.
An acetonitrile stopping solution containing 1 ng/mL of labetalol and glibenclamide was prepared.
3. Incubation System (n=3)
The above-mentioned solutions were placed in a 96-well plate, respectively and shaken in a thermostatic oscillator for 2 hours (37° C., 150 rpm).
4. Control solution: 200 μM control solution of the substance to be tested was prepared in methanol. 5. Sample treatment
At a predetermined time, the 96-well plate was placed in a centrifuge and centrifuged at 4100 rpm for 15 minutes. A certain volume of the supernatant and a certain volume of control solution were respectively taken into 19 times volume of water containing 70% acetonitrile that has been previously added. The mixture was uniformly mixed, diluted 20 times with an internal standard stop solution and shaken in a thermostatic oscillator at 700 rpm at room temperature for 5 min. Further dilution may be necessary depending on the sensitivity of the compound, and sample analysis was performed by LC-MS/MS.
The ratio of compound peak area to internal standard peak area was used for calculation. According to the concentration relationship between the compound in the buffer and the control solution, the calculated concentration was the kinetic solubility, and the calculation formula was as follows:
Solubility(μg/mL)=mass spectral peak area of the compound to be tested in buffers at different pHs×200μM×molecular weight of the compound to be tested(MW)/mass spectral peak area of the compound to be tested in methanol/1000;

[5] = both sexes, dog, plasma, PO, 5 mg/kg

T2 sequence (O75874 whole entry R132H): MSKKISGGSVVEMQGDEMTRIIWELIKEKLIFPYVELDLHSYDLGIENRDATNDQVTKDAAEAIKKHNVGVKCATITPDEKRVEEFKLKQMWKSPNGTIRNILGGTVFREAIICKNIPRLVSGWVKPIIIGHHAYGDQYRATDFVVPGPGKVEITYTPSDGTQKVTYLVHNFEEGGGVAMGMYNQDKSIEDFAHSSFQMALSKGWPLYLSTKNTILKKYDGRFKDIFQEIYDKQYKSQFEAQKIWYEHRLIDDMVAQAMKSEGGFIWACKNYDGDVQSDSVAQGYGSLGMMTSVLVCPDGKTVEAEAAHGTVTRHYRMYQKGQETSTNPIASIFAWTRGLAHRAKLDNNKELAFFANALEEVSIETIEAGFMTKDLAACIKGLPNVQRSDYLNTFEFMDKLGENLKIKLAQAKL

| Structure (SMILES) | IC50 (IDH2^R140Q; class symbols) | IC50 (IDH1^R132H [1]; class symbols) | IC50 (IDH1^R132H [2]; class symbols) | further results |
| --- | --- | --- | --- | --- |
| N#Cc1ccnc(N2C(=O)CC[C@H]2C(=O)N(c2cncc(F)c2)[C@H](C(=O)NC2CC(F)(F)C2)c2ccccc2Cl)c1 [AG-120] | – | – | – | patients in whom a decrease in α-hydroxyglutaric acid (2-HG) levels was observed (mutant IDH1): 98% |
| C[C@@H](Nc1nc(N[C@H](C)C(F)(F)F)nc(-c2cc(C(F)F)c(N)c(Cl)n2)n1)C(F)(F)F [Example 8, 6-(5-amino-6-chloro-4-(difluoromethyl)pyridin-2-yl)-N^2,N^4-bis((R)-1,1,1-trifluoroprop-2-yl)-1,3,5-triazine-2,4-diamine] | 100 to 1000 nM | 100 to 1000 nM | > 1000 nM | – |
| Cc1cc(-c2nc(N[C@H](C)C(F)(F)F)nc(N[C@H](C)C(F)(F)F)n2)nc(Cl)c1N [Example 7, 6-(5-amino-6-chloro-4-methylpyridin-2-yl)-N^2,N^4-bis((R)-1,1,1-trifluoropropyl-2-yl)-1,3,5-triazine-2,4-diamine] | 100 to 1000 nM | 50 to 100 nM | > 1000 nM | – |
| C[C@@H](Nc1nc(N[C@H](C)C(F)(F)F)nc(-c2cc(Cl)c(O)c(Cl)n2)n1)C(F)(F)F [Example 19, 6-(4,6-dichloro-5hydroxylpyridin-2-yl)-N^2,N^4-bis((R)-1,1,1-trifluoroprop-2-yl)-1,3,5-triazine-2,4-diamine] | 50 to 100 nM | > 1000 nM | 50 to 100 nM | – |
| C[C@@H](Nc1nc(N[C@H](C)C(F)(F)F)nc(-c2cc(F)c(Br)c(Cl)n2)n1)C(F)(F)F [Example 18, 6-(5-bromo-6-chloro-4-fluoropyridin-2-yl)-N^2,N^4-bis((R)-1,1,1-trifluoroprop-2-yl)-1,3,5-triazine-2,4-diamine] | 50 to 100 nM | > 1000 nM | 50 to 100 nM | – |
| C[C@@H](Nc1nc(N[C@H](C)C(F)(F)F)nc(-c2cc(F)c(N)c(F)n2)n1)C(F)(F)F [Example 23, 6-(5-amino-4,6-difluoropyridin-2-yl)-N^2,N^4-bis((R)-1,1,1-trifluoroprop-2-yl)-1,3,5-triazine-2,4-diamine] | 100 to 1000 nM | ≤ 50 nM | 100 to 1000 nM | – |
| C[C@@H](Nc1nc(N[C@H](C)C(F)(F)F)nc(-c2cccc(Cl)n2)n1)C(F)(F)F [compound 1, reference compound] | – | – | – | Cl_obs ([3]; IV, 1 mg/kg): 24.2 mL/min/kg; AUC(0-t) ([3]; both sexes, dog, plasma, IV, 1 mg/kg): 653 ng·h/mL; AUC(0-t) [3, 5]: 2160 ng·h/mL; Cmax [3, 5]: 658 ng/mL; solubility at 2 h ([4]; aqueous buffer, pH = 3.0, 37° C.): 1.6 µg/mL (≈ 3.86 µM); solubility at 2 h ([4]; aqueous buffer, pH = 5.0, 37° C.): 1.4 µg/mL (≈ 3.38 µM); solubility at 2 h ([4]; aqueous buffer, pH = 7.4, 37° C.): 0.8 µg/mL (≈ 1.93 µM); solubility at 2 h ([4]; simulated gastric fluid, pH = 1.0, 37° C.): 39.6 µg/mL (≈ 95.5 µM) |
| C[C@@H](Nc1nc(N[C@H](C)C(F)(F)F)nc(-c2cc(Cl)c(N)c(Cl)n2)n1)C(F)(F)F [Example 1] | – | – | – | IC50 (IDH2^R140Q; numeric values): 128 nM; IC50 (IDH1^R132H [1]; numeric values): 26 nM; IC50 (IDH1^R132H [2]; numeric values): 143 nM |
